Measured values taken from article PMC11709109, “Identification of AS1842856 as a novel small‐molecule GSK3α/β inhibitor against Tauopathy by accelerating GSK3α/β exocytosis” (Aging Cell, 2024).

Key:
GSK3β = target: T1, GSK3β (Homo sapiens, UniProt P49841); experiment: bio-layer interferometry (Octet K2, Ni-NTA); supported by CETSA in N2a lysate; assay type: binding
T1 construct: gene GSK3B; recombinant, His tag (Sino Biological 10044-H07B)

GSK3α = target: T2, GSK3α (Homo sapiens, UniProt P49840); experiment: as above; assay type: binding
T2 construct: gene GSK3A; recombinant, His tag (CLOUD-CLONE RPA360Hu01)
T2 sequence (P49840 2-483): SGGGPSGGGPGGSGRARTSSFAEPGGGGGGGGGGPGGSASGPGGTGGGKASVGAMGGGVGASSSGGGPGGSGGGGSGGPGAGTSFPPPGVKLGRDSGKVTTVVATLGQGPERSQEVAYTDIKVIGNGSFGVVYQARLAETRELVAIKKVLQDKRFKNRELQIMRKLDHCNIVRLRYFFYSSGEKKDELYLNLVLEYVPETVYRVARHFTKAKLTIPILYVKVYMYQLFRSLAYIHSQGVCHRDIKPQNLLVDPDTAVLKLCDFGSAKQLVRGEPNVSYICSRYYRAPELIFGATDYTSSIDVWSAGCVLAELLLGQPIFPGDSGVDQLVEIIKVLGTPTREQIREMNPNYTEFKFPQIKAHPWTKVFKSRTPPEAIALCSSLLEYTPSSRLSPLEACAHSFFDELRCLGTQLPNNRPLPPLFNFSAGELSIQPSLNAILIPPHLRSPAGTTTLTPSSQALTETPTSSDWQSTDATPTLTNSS

CCn1cc(C(=O)O)c(=O)c2c(N)c(F)c(NC3CCCCC3)cc21 [AS, AS1842856]
Kd (GSK3β): 40.9 µM | Kd (GSK3α): 15.8 µM
